This passage reports inhibition and IC50 results from ChEMBL document CHEMBL1149205, “Biological evaluation of substituted quinolines” (Bioorg Med Chem Lett, 2004).

For test [1], the system named is Human T-cell leukemia virus type I. Put plainly: Inhibitory activity against proliferation of HTLV-1 transformed cell lines (HUT-102) at 10 uM. It counts as functional. To be noted: Primate T-lymphotropic virus 1, HuT-102.
In another test the test system is Leishmania infantum. Description: In vitro anti protozoal activity against Leishmania infantum strain MHOM-ET-67/L82 was determined. Type of test: functional, organism-based.
In another test the test system is Leishmania amazonensis. Put plainly: In vitro anti protozoal activity against Leishmania amazonensis strain MHOM/ET/L82/LV9 was determined. Type of test: functional, organism-based.
The next test relates to MRC5. Description: Cytotoxicity in MRC-5 cells. Type of test: functional, cell-based. To be noted: Homo sapiens.
For another test, the species on record is Homo sapiens. Description: Cytotoxicity in macrophages. It counts as functional.
For test [2], the system named is Plasmodium falciparum. Description: In vitro anti-protozoal activity against Plasmodium falciparum Ghana strain. It counts as functional, organism-based.
Test [3] relates to Plasmodium falciparum. Description: In vitro anti-protozoal activity against Plasmodium falciparum W2. Type of test: functional, organism-based.
Another test concerns Trypanosoma cruzi. Description: In vitro anti protozoal activity against Trypanosoma cruzi strain Tulahuen CL2 was determined. It counts as functional, organism-based.
The next test has as its system Trypanosoma brucei. Put plainly: In vitro anti protozoal activity against Trypanosoma brucei strain S427 was determined. It counts as functional, organism-based.

For `Fc1ccccc1NCc1ccc2ccccc2n1`, in [1], at 10 µM the inhibition was 0%. Further, the IC50 in the test with Leishmania infantum (Leishmania infantum), in the test on Leishmania amazonensis, in the test with MRC5, in the test filed under Homo sapiens, with Plasmodium falciparum [2] and in the test on Plasmodium falciparum [3] was above 32 µM in each case. The IC50 in the test with Trypanosoma cruzi and with Trypanosoma brucei was above 32 µM each time.

In [1], `COc1cc(NCc2ccc3ccccc3n2)cc(OC)c1OC` returned an inhibition at 10 µM of 0%. In addition, the IC50 with Leishmania infantum (Leishmania infantum), in the test with Leishmania amazonensis, in the test on MRC5, in the test listed under Homo sapiens, in the test with Plasmodium falciparum [2] and with Plasmodium falciparum [3] was above 32 µM throughout. Also, the IC50 in the test on Trypanosoma cruzi and in the test on Trypanosoma brucei was above 32 µM each time.

Take `CN1CCN(C(=O)/C=C/c2ccc3ccccc3n2)CC1`: the inhibition at 10 µM in test [1] turned out to be 0%. Besides, the IC50 in the test with Leishmania infantum (Leishmania infantum), in the test with Leishmania amazonensis, with MRC5, in the test listed under Homo sapiens, in the test on Plasmodium falciparum [2] and in the test with Plasmodium falciparum [3] was above 32 µM throughout. Also, the IC50 in the test on Trypanosoma cruzi and in the test with Trypanosoma brucei was above 32 µM each time.

Molecule `CN(C)c1ccc(C(O)Cc2ccc3ccccc3n2)cc1` (centres undefined) gave an inhibition at 10 µM in test [1] of 0%. Moreover, the IC50 in the test on Leishmania infantum (Leishmania infantum), with Leishmania amazonensis, with MRC5, in the test filed under Homo sapiens, in the test on Plasmodium falciparum [2] and in the test on Plasmodium falciparum [3] was above 32 µM in each case. Besides, the IC50 in the test on Trypanosoma cruzi and with Trypanosoma brucei was above 32 µM throughout.

Molecule `CC1CS(=O)(=O)CCN1/N=C/c1ccc([N+](=O)[O-])o1` (centres undefined) [NIFURTIMOX] gave an IC50 in the test on Trypanosoma cruzi of 0.45 µM.

For the molecule `CCCCCCCCCCCCCCCCOP(=O)([O-])OCC[N+](C)(C)C` [MILTEFOSINE], the figures for the IC50 in the test on Leishmania amazonensis and in the test filed under Homo sapiens were 3.12 µM and 12.5 µM, respectively.

As to `COc1ccc(/C=C/c2ccc3ccccc3n2)c(OC)c1`, in test [1], the inhibition at 10 µM worked out at 0%. Also, the IC50 with Leishmania infantum (Leishmania infantum) is above 32 µM; in the test on Leishmania amazonensis it was above 32 µM; with MRC5 it was above 32 µM; in the test listed under Homo sapiens it was above 32 µM; in the test on Plasmodium falciparum [2], above 32 µM; with Plasmodium falciparum [3], 30 µM. The IC50 in the test with Trypanosoma cruzi was above 32 µM; in the test with Trypanosoma brucei, 18 µM.

With `CN(C)c1ccc(/C=C/c2ccc3ccccc3n2)cc1`, the inhibition at 10 µM in test [1] stood at 26%. In addition, the IC50 with Leishmania infantum (Leishmania infantum) was above 32 µM; with Leishmania amazonensis, 16 µM; with MRC5 it was above 32 µM; in the test listed under Homo sapiens, 16 µM; in the test on Plasmodium falciparum [2], above 32 µM; in the test with Plasmodium falciparum [3] it was above 32 µM. Moreover, the IC50 in the test on Trypanosoma cruzi turned out to be 17 µM; with Trypanosoma brucei, 6 µM.

In turn, `O=C/C=C/c1ccc2ccccc2n1` yielded an inhibition at 10 µM in test [1] of 34%. The half-maximal inhibitory concentration (IC50) in the test with Leishmania infantum (Leishmania infantum) came out at 2 µM; in the test with Leishmania amazonensis, 4 µM; with MRC5 it was 16 µM; in the test listed under Homo sapiens, 9 µM; with Plasmodium falciparum [2] it was 31 µM; in the test on Trypanosoma cruzi, 5 µM. Moreover, inhibition with Trypanosoma brucei was half-maximal at 19 µM (IC50).

On to `O=[N+]([O-])c1ccc(/C=C/c2ccc3ccccc3n2)cc1`, for which the inhibition at 10 µM in [1] was determined as 0%. Moreover, the IC50 with Leishmania infantum (Leishmania infantum), in the test on Leishmania amazonensis, with MRC5, in the test filed under Homo sapiens, in the test on Plasmodium falciparum [2] and in the test on Plasmodium falciparum [3] was above 32 µM throughout. For the same molecule, the results for the IC50 with Trypanosoma cruzi and in the test on Trypanosoma brucei were 28 µM and above 32 µM, respectively.

Molecule `O=[N+]([O-])/C=C/c1ccc2ccccc2n1` displayed an inhibition at 10 µM in [1] of 76%. For the same molecule, the IC50 with Leishmania infantum (Leishmania infantum) was above 8 µM; with Leishmania amazonensis, above 32 µM; with MRC5, 22 µM; in the test filed under Homo sapiens, above 32 µM; with Plasmodium falciparum [2], 16 µM; in the test with Plasmodium falciparum [3] it was 14 µM. The IC50 with Trypanosoma cruzi was 1 µM; in the test on Trypanosoma brucei, 18 µM.

Turning to `OC(Cc1ccc2ccccc2n1)c1ccc(F)cc1` (centres undefined), in test [1], the inhibition at 10 µM was 0%. Moreover, the IC50 is above 32 µM in the test with Leishmania infantum (Leishmania infantum); above 32 µM in the test on Leishmania amazonensis; above 32 µM in the test on MRC5; above 32 µM in the test filed under Homo sapiens; 4 µM with Plasmodium falciparum [2]; 1 µM in the test on Plasmodium falciparum [3]. Moreover, the IC50 in the test with Trypanosoma cruzi and in the test on Trypanosoma brucei was above 32 µM in each case.

For the molecule `Br/C=C/c1ccc2ccccc2n1`, the IC50 in the test with Leishmania infantum (Leishmania infantum) is 2 µM; in the test with Leishmania amazonensis, 3 µM; in the test on MRC5, above 32 µM; in the test listed under Homo sapiens, 13 µM; in the test with Plasmodium falciparum [2], above 32 µM; in the test on Trypanosoma cruzi, 0.15 µM. In the test with Trypanosoma brucei, the IC50 stood at 1 µM.

On to `OC(Cc1ccc2ccccc2n1)c1ccco1` (centres undefined), for which the inhibition at 10 µM in test [1] is 0%. Besides, the concentration for half-maximal inhibition (IC50) in the test with Leishmania infantum (Leishmania infantum), in the test on Leishmania amazonensis, with MRC5, in the test filed under Homo sapiens, in the test on Plasmodium falciparum [2] and in the test with Plasmodium falciparum [3] was above 32 µM each time. In addition, the IC50 in the test on Trypanosoma cruzi and in the test with Trypanosoma brucei was above 32 µM in each case.

`O=C(/C=C/c1ccc2ccccc2n1)N1CCCCC1` showed an inhibition at 10 µM in [1] of 0%. Further, the IC50 is 16 µM with Leishmania infantum (Leishmania infantum); 18 µM in the test with Leishmania amazonensis; above 32 µM with MRC5; above 32 µM in the test listed under Homo sapiens; 15 µM with Plasmodium falciparum [2]; 17 µM in the test with Plasmodium falciparum [3]. Moreover, the results for the IC50 in the test on Trypanosoma cruzi and in the test on Trypanosoma brucei were 17 µM and above 32 µM, respectively.

On to `Fc1ccc(/C=C/c2ccc3ccccc3n2)cc1`, for which the inhibition at 10 µM in [1] came out at 26%. For the same molecule, the IC50 in the test on Leishmania infantum (Leishmania infantum), in the test with Leishmania amazonensis, with MRC5, in the test listed under Homo sapiens, in the test on Plasmodium falciparum [2] and in the test on Plasmodium falciparum [3] was above 32 µM in each case. The IC50 is 22 µM in the test on Trypanosoma cruzi and above 32 µM in the test on Trypanosoma brucei.

Molecule MEGLUMINE ANTIMONATE registered an IC50 in the test on Leishmania infantum of 7.15 µM. That is a single-digit micromolar value.

The molecule `Cc1ccc(C(=O)Nc2ccc(S(=O)(=O)O)c3cc(S(=O)(=O)O)cc(S(=O)(=O)O)c23)cc1NC(=O)c1cccc(NC(=O)Nc2cccc(C(=O)Nc3cc(C(=O)Nc4ccc(S(=O)(=O)O)c5cc(S(=O)(=O)O)cc(S(=O)(=O)O)c45)ccc3C)c2)c1` [SURAMIN] came in with an IC50 in the test on Trypanosoma brucei of 0.09 µM.

In the case of `O=[N+]([O-])c1ccc(C(O)Cc2ccc3ccccc3n2)cc1` (centres undefined), in [1], the inhibition at 10 µM turned out to be 10%. Further, the IC50 in the test with Leishmania infantum (Leishmania infantum) was above 32 µM; in the test with Leishmania amazonensis it was above 32 µM; in the test on MRC5, above 32 µM; in the test filed under Homo sapiens, above 32 µM; in the test on Plasmodium falciparum [2], 15 µM; with Plasmodium falciparum [3], 6 µM. Moreover, the IC50 with Trypanosoma cruzi and in the test on Trypanosoma brucei was above 32 µM each time.

On to `COc1ccc(C(O)Cc2ccc3ccccc3n2)cc1OC` (centres undefined), for which testing at 10 µM in [1] gave an inhibition of 0%. For the same molecule, the IC50 in the test on Leishmania infantum (Leishmania infantum), in the test on Leishmania amazonensis, in the test with MRC5, in the test filed under Homo sapiens, in the test with Plasmodium falciparum [2] and with Plasmodium falciparum [3] was above 32 µM throughout. The IC50 with Trypanosoma cruzi and with Trypanosoma brucei was above 32 µM each time.

The molecule `COc1ccc(/C=C/c2ccc3ccccc3n2)cc1OC` displayed an inhibition at 10 µM in [1] of 0%. Also, the IC50 is 22 µM with Leishmania infantum (Leishmania infantum); above 32 µM with Leishmania amazonensis; above 32 µM with MRC5; above 32 µM in the test listed under Homo sapiens; above 32 µM in the test with Plasmodium falciparum [2]; above 32 µM with Plasmodium falciparum [3]. For the same molecule, the results for the IC50 in the test with Trypanosoma cruzi and with Trypanosoma brucei were above 32 µM and 26 µM, respectively.

As to `O=C(/C=C/c1ccc2ccccc2n1)N1CCOCC1`, in test [1], the inhibition at 10 µM was found to be 0%. The IC50 was 18 µM with Leishmania infantum (Leishmania infantum); above 32 µM with Leishmania amazonensis; above 32 µM in the test with MRC5; above 32 µM in the test listed under Homo sapiens; 12 µM in the test on Plasmodium falciparum [2]; 16 µM in the test on Plasmodium falciparum [3]. Also, the 50% inhibitory concentration (IC50) in the test on Trypanosoma cruzi is 13 µM; in the test with Trypanosoma brucei, above 32 µM.
